Here are results for 36 molecules from US9745328B2, “Flap modulators” (JANSSEN PHARMACEUTICA NV, priority 2013, dated 2017).

Each structure is given as a SMILES string. Where a name gives a salt, the structure may show the parent alone. Where only a bound is given, the exact number is not on record here.

human FLAP, sequence (P20292 whole entry): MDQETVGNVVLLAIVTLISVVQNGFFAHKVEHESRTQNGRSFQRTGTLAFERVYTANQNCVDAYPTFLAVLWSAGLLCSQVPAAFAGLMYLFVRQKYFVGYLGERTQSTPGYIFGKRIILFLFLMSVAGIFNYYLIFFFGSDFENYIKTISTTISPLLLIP

In the first assay the target is human FLAP (Homo sapiens (Human), UniProt P20292). Briefly: FLAP binding assay (HTRF format). The note with it: Table 6 (additional runs), human FLAP wild type. The procedure, abridged:
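Read-out is the HTRF ratio. Each reported figure averages two assay plates on which samples were tested in duplicate.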
With `CC(C)(C)OC(=O)NC1CCCN(S(=O)(=O)c2ccccc2-c2ccc(-c3cnc(N)cn3)c(F)c2)C1` (racemic) [Example 77, racemic tert-Butyl (1-{[4′-(5-aminopyrazin-2-yl)-3′-fluorobiphenyl-2-yl]sulfonyl}piperidin-3-yl)carbamate], the Ki was found to be 3.2 nM.
In the case of `Nc1ncc(-c2ccc(-c3ccccc3S(=O)(=O)N3CC4(COC4)C3)cc2F)cn1` [Example 312, 5-(2′-(2-oxa-6-azaspiro[3.3]heptan-6-ylsulfonyl)-3-fluoro-[1,1′-biphenyl]-4-yl)pyrimidin-2-amine], the affinity corresponds to a Ki of 323 nM.
`Nc1cnc(-c2ccc(-c3ccccc3CSc3ccncn3)cc2F)cn1` [Example 243, 5-(3-fluoro-2′-((pyrimidin-4-ylthio)methyl)-[1,1′-biphenyl]-4-yl)pyrazin-2-amine hydrochloride] displayed a Ki of 3.3 nM.
On the same count and under the same terms, the figure for `CC(C)N(CCO)S(=O)(=O)c1ccccc1-c1ccc(-c2cnc(N)nc2)c(F)c1` [Example 261, 4′-(2-Aminopyrimidin-5-yl)-3′-fluoro-N-(2-hydroxyethyl)-N-(1-methylethyl)biphenyl-2-sulfonamide] is 5.6 nM.
Still for that read-out and setting: the same measure for `CC(C)(CO)NS(=O)(=O)c1ccccc1-c1ccc(-c2cnc(N)nc2)c(F)c1` [Example 280, 4′-(2-.Aminopyrimidin-5-yl)-3′-fluoro-N-(2-hydroxy-1,1-dimethylethyl)biphenyl-2-sulfonamide trifluoroacetic acid salt]: 3.3 nM; for `CC(CO)(CO)NS(=O)(=O)c1ccccc1-c1ccc(-c2cnc(N)cn2)c(F)c1` [Example 147, 4′-(5-Aminopyrazin-2-yl)-3′-fluora-N-[2-hydroxy-1-(hydroxymethyl)-1-methylethyl]piphenyl-2-sulfonamide]: 0.6 nM.
As to `CSc1ccc(F)cc1-c1ccc(-c2cnc3[nH]ccc3n2)c(F)c1` [Example 383], the Ki was found to be 7.9 nM.
Take `Nc1cnc(-c2ccc(-c3ccccc3S(=O)(=O)N[C@H]3CC[C@@H](N)CC3)cc2F)cn1` [Example 134, N-(4-Aminocyclohexyl)-4′-(5-aminopyrazin-2-yl)-3′-fluorobiphenyl-2-sulfonamide]: the Ki came to 1.3 nM.
Regarding `Nc1cnc(-c2ccc(-c3ccccc3S(=O)(=O)N[C@@H]3CCCC[C@@H]3O)cc2F)cn1` [Example 87, 4′-(5-Aminopyrazin-2-yl)-3′-fluoro-N-[(1R,2S)-2-hydroxycyclohexyl]biphenyl-2-sulfonamide], affinity was put at a Ki of 3.2 nM.
Still for that read-out and setting: the same measure for `N#CC1CN(S(=O)(=O)c2ccccc2-c2ccc(-c3cnc(N)nc3)c(F)c2)C1` [Example 314, 1-((4′-(2-aminopyrimidin-5-yl)-3′-fluoro-[1,1′-biphenyl]-2-yl)sulfonyl)azetidine-3-carbonitrile]: 88.8 nM; for `CC(C)(CO)CNS(=O)(=O)c1ccccc1-c1ccc(-c2cnc(N)cn2)c(F)c1` [Example 103, 4′-(5-Aminopyrazin-2-yl)-3′-fluoro-N-(3-hydroxy-2,2-dimethylpropyl)biphenyl-2-sulfonamide]: 0.3 nM; for `CN(C)S(=O)(=O)c1ccccc1-c1ccc(-c2cnc(N)cn2)c(F)c1` [Example 42, 4′-(5-Aminopyrazin-2-yl)-3′-fluoro-N,N-dimethylbiphenyl-2-sulfonamide]: 10.2 nM.
`CC(C)(C)NS(=O)(=O)c1ccccc1-c1ccc(-c2cnc(N)nc2)c(F)c1` [Example 305, 4′-(2-aminopyrimidin-5-yl)-N-(tert-butyl)-3′-fluoro[1,1′-biphenyl]-2-sulfonamide trifluoroacetic acid salt] gave a Ki of 1.6 nM.
`Nc1cnc(-c2ccc(-c3ccccc3S(=O)(=O)N3CCN(C(=O)C4CC4)CC3)cc2F)cn1` [Example 58, 5-(2′-{[4-(Cyclopropylcarbonyl)piperazin-1-yl]sulfonyl}-3-fluoroblphenyl-4-yl)pyrazin-2-amine] came in with an inhibitory constant (Ki) of 4.6 nM.
For the molecule `Nc1cnc(-c2ccc(-c3ccccc3S(=O)(=O)N[C@H]3CC[C@H](O)CC3)cc2F)cn1` [Example 110, trans 4′-(5-Aminopyrazin-2-yl)-3′-fluoro-N-(4-hydroxycyclohexyl)biphenyl-2-sulfonamide], the affinity corresponds to a Ki of 2.6 nM.
Take `Nc1cnc(-c2ccc(-c3ccccc3S(=O)(=O)N3CCNC(=O)C3)cc2F)cn1` [Example 66, 4-{1,4′-(5-Aminopyrazin-2-yl)-3′-fluorobiphenyl-2-ylisulfonyl}piperazin-2-one]: the affinity corresponds to a Ki of 26.6 nM.
In the case of `C[C@@H](CO)NS(=O)(=O)c1ccccc1-c1ccc(-c2cnc3[nH]ccc3c2)c(F)c1` [Example 362, 3′-Fluoro-N-[(1S)-2-hydroxy-1-methylethyl]-4′-(1H-pyrrolo[2,3-b]pyridin-5-yl)biphenyl-2-sulfonamide], the Ki was 1.2 nM.
In turn, `CC(NS(=O)(=O)c1ccccc1-c1ccc(-c2cnc3[nH]ccc3n2)c(F)c1)C(F)(F)F` (racemic) [Example 376, 3′-Fluoro-4′-(5H-pyrrolo[2,3-b]pyrazin-2-yl)N-N-(2,2,2-trifluoro-1-methylethyl)biphenyl-2-sulfonamide] registered a Ki of 0.5 nM.
As to `C[C@@H]([C@@H](O)c1ccccc1)N(C)S(=O)(=O)c1ccccc1-c1ccc(-c2cnc(N)cn2)c(F)c1` [Example 118, 4′-(5-aminopyrazin-2-yl)-3′-fluoro-N-((1S,2S)-1-hydroxy-1-phenylpropan-2-yl)-N-methyl-[1,1′-biphenyl)-2-sulfonamide], the affinity, expressed as Ki, was 0.4 nM.
In turn, `Nc1ncc(-c2ccc(-c3ccccc3S(=O)(=O)N[C@H]3CCCC[C@H]3O)cc2F)cn1` (racemic) [Example 259, racemic (cis) 4′-(2-Aminopyrimidin-5-yl)-3′-fluoro-N-[(cis)-2-hydroxycyclohexyl]biphenyl-2-sulfonamide] came in with a Ki of 7.8 nM.
Same read-out and setting: the figure for `CC(CO)NS(=O)(=O)c1ccccc1-c1ccc(-c2cnc3[nH]ccc3n2)c(F)c1` (stereo in doubt) [Example 378, 3′-Fluoro-N-[(1R)-2-hydroxy-1-methylethyl]-4′-(5H-pyrrolo[2,3-b]pyrazin-2-yl)biphenyl-2-sulfonamide] is 0.6 nM; for `Nc1cnc(-c2ccc(-c3ccccc3S(=O)(=O)N3C[C@@H]4C(N)[C@@H]4C3)cc2F)cn1` (stereo partly drawn) [Example 143, (1R,5S)-3-((4′-(5-aminopyrazin-2-yl)-3′-fluoro-[1,1′-biphenyl]-2-yl)sulfonyl)-3-azabicyclo[3.1.0]hexan-6-amine] it is 8.5 nM; for `Nc1cnc(-c2ccc(-c3ccccc3S(=O)(=O)N[C@H](CO)c3ccccc3)cc2F)cn1` [Example 81, 4′-(5-Aminopyrazin-2-yl)-3′-fluoro-N-[(1S)-2-hydroxy-1-phenylethyl]biphenyl-2-sulfonamide] it is 6.4 nM.
Molecule `CC(C)(C)NS(=O)(=O)c1ccccc1-c1ccc(-c2cnc(N)cn2)c(F)c1` [Example 4, 4′-(5-Aminopyrazin-2-yl)-N-(tert-butyl)-3′-fluoro-[1,1′-biphenyl]-2-sulfonamide] gave a Ki of 0.4 nM.
As to `CN(C)S(=O)(=O)c1ccccc1-c1ccc(-c2cnc3[nH]ccc3n2)c(F)c1` [Example 370, 3′-Fluoro-N,N-dimethyl-4′-(5H-pyrrolo[2,3-b]pyrazin-2-yl)biphenyl-2-sulfonamide], affinity was put at a Ki of 1.9 nM.
The same measure, in the same setting: the same measure for `CC1(NS(=O)(=O)c2ccccc2-c2ccc(-c3cnc(N)cn3)c(F)c2)COC1` [Example 173, 4′-(5-Aminopyrazin-2-yl)-3′-fluoro-N-(3-methyloxetan-3-yl)biphenyl-2-sulfonamide]: 0.8 nM.

Still in this assay, the particulars now being: human FLAP wild type, Table 6 (additional runs).
Molecule `Nc1ncc(-c2ccc(-c3ccc(C(F)(F)F)cc3Oc3ncccn3)cc2F)cn1` [Example 552, 5-[3-Fluoro-2′-(pyrimidin-2-yloxy)-4′-(trifluoromethyl)biphenyl-4-yl]pyrimidin-2-amine] came in with an inhibition constant (Ki) of 5.5 nM.
Take `CC(C)(C)NS(=O)(=O)c1ccccc1-c1cnc(-c2cnc(N)nc2)c(F)c1` [Example 675, 2-[6-(2-Aminopyrimidin-5-yl)-5-fluoropyridin-3-yl]-N-tert-butylbenzenesulfonamide]: the Ki worked out at 1 nM.
`Nc1ncc(-c2ccc(-c3cccnc3OC3CCNCC3)cc2F)cn1` [Example 646, 5-{2-Fluoro-4-[2-(piperidin-4-yloxy)pyridin-3-yl]phenyl}pyrimidin-2-amine] showed a Ki above 10000 nM.
On to `CC(C)(C)NS(=O)(=O)c1ccccc1-c1ccc(-c2cnc(N)c(C#N)n2)c(F)c1` [Example 434, 4′-(5-Amino-6-cyanopyrazin-2-yl)-N-tert-butyl-3′-fluorobiphenyl-2-sulfonamide], for which affinity was put at a Ki of 1.1 nM.
In turn, `CC(C)(C)NS(=O)(=O)c1ccccc1-c1ccc(-c2cc(N)c3[nH]ccc3c2)c(F)c1` [Example 458, 4′-(7-Amino-1H-indol-5-yl)-N-tert-butyl-3′-fluorobiphenyl-2-sulfonamide] registered a Ki of 4.2 nM.
Regarding `COc1cc(C(F)(F)F)ccc1-c1ccc(-c2cnc(N)cn2)c(F)c1` [Example 553, 5-[3-fluoro-2′-methoxy-4′-(trifluoromethyl)biphenyl-4-yl]pyrazin-2-amine], the Ki was 19.3 nM.
The molecule `Nc1cnc(-c2ccc(-c3cccnc3OC3CCS(=O)(=O)CC3)cc2F)cn1` [Example 647, 5-(4-{2-[(1,1-Dioxidotetrahydro-2H-thiopyran4-yl)oxy]pyridin-3-yl}-2-fluorophenyl)pyrazin-2-amine] yielded a Ki of 227 nM.
With `CC(C)(C)NS(=O)(=O)c1ccccc1-c1ccc(-c2cnc(N)c(Br)n2)c(F)c1` [Example 442, 4′-(5-Amino-6-bromopyrazin-2-yl)-N-tert-butyl-3′-fluorobiphenyl-2-sulfonamide], affinity was put at a Ki of 0.9 nM.
Still for that read-out and setting: the same measure for `CC(C)(C)NS(=O)(=O)c1ccccc1-c1ccc(-c2cnc3[nH]cc(CO)c3c2)c(F)c1` [Example 455, N-tert-Butyl-3′-fluoro-4′-[3-(hydroxymethyl)-1H-pyrrolo[2,3-b]pyridin-5-yl]biphenyl-2-sulfonamide]: 0.7 nM.
Molecule `Nc1ccnc(Oc2ccccc2-c2ccc(-c3cnc4[nH]ccc4c3)c(F)c2)n1` [Example 524, 2-{[3′-Fluoro-4′-(1H-pyrrolo[2,3-b]pyridin-5-yl)biphenyl-2-yl]oxy}pyrimidin-4-amine] came in with a Ki of 0.7 nM.

Staying with this assay, now noted: human FLAP wild type, a calculated value of 0.000 indicates Ki less than 1 nM.
With `CC(C)(CO)CNS(=O)(=O)c1ccccc1-c1ccc(-c2cnc(N)cn2)c(F)c1` [Example 103, 4′-(5-Aminopyrazin-2-yl)-3′-fluoro-N-(3-hydroxy-2,2-dimethylpropyl)biphenyl-2-sulfonamide], the Ki was below 1 nM.
With `CC(NS(=O)(=O)c1ccccc1-c1ccc(-c2cnc3[nH]ccc3n2)c(F)c1)C(F)(F)F` (racemic) [Example 376, 3′-Fluoro-4′-(5H-pyrrolo[2,3-b]pyrazin-2-yl)N-N-(2,2,2-trifluoro-1-methylethyl)biphenyl-2-sulfonamide], the Ki was below 1 nM.
In the case of `C[C@@H]([C@@H](O)c1ccccc1)N(C)S(=O)(=O)c1ccccc1-c1ccc(-c2cnc(N)cn2)c(F)c1` [Example 118, 4′-(5-aminopyrazin-2-yl)-3′-fluoro-N-((1S,2S)-1-hydroxy-1-phenylpropan-2-yl)-N-methyl-[1,1′-biphenyl)-2-sulfonamide], the inhibition constant Ki is below 1 nM.
